{"source": "patent US11857544B2", "about": "“Composition or method including (t)ew-7197 for treating or preventing corneal endothelial diseases” (THE DOSHISHA, priority 2017, dated 2024)", "format_in_all_cases": "in vivo", "key": {"Col8a2 knock-in mice [1]": {"test_system": "Col8a2 knock-in mice", "test": "Corneal endothelial cell density after eye drops in Col8a2 knock-in mice (Example 5, 8 weeks)", "details": "for Amount of change in the corneal endothelial cell density (ΔECD): 0.02% eye drop 4 times a day", "protocol": "(§1) This Example evaluated the efficacy of an EW-7197 eye drop on Fuchs' endothelial corneal dystrophy using a Fuchs' endothelial corneal dystrophy animal model, Col8a2 knock-in mice. Col8a2 knock-in mice are established animal models of Fuchs' endothelial corneal dystrophy (reference: Jun et al., Hum Mol Genet. 2012 Jan. 15; 21(2): 384-93). 5 μL of 0.02% (about 0.5 mM) EW-7197 eye drop or a base agent (7% DMSO containing PBS) was administered as an eye drop to both eyes of 4-month-old alpha 2 collagen 8 gene (Col8a2) knock-in mice 4 times a day for 8 weeks. The corneal endothelial cell density was measured using a specular microscope KS3M (Konan Medical, Inc.) at before eye drops, and 2, 4, 6, and 8 weeks after eye drops. Mice were euthanized by intraperitoneally administering an excessive amount (200 mg/kg body weight or greater) of anesthetic injection Somnopentyl (Kyoritsu Seiyaku Corporation) 8 weeks after injection. After confirming cardiac arrest, both eye balls were harvested. The harvested eye balls were incised to prepare a corneal fragment. Immunostaining of type I collagen and fibronectin was performed as follows. Image-Pro (Nippon Roper K.K.) was used to analyze the area of type I collagen and fibronectin expression."}, "type I collagen": {"test_system": "type I collagen", "test": "Area of type I collagen expression by immunostaining, Col8a2 knock-in mice (Example 5)", "details": "0.02% eye drop, 8 weeks", "protocol": "as §1, with “5” for “This Example evaluated the efficacy of an EW-7197 eye drop on Fuchs' endothelial corneal dystrophy using a Fuchs' endothelial corneal dystrophy animal model, Col8a2 knock-in mice. Col8a2 knock-in mice are established animal models of Fuchs' endothelial corneal dystrophy (reference: Jun et al., Hum Mol Genet. 2012 Jan. 15; 21(2): 384-93). 5”\n(§2) After immobilizing a mouse corneal fragment for 10 minutes at room temperature in 4% paraformaldehyde, 0.5% TritonX-100 was added and allowed to permeate for 5 minutes. 1% bovine serum albumin (BSA) was added and the fragment was incubated for 1 hour at room temperature. The corneal fragment was then immersed in a primary antibody solution and reacted overnight at 4° C. […]"}, "fibronectin [2]": {"test_system": "fibronectin", "test": "Area of fibronectin expression by immunostaining, Col8a2 knock-in mice (Example 5)", "details": "0.02% eye drop, 8 weeks", "protocol": "as §1, with “5” for “This Example evaluated the efficacy of an EW-7197 eye drop on Fuchs' endothelial corneal dystrophy using a Fuchs' endothelial corneal dystrophy animal model, Col8a2 knock-in mice. Col8a2 knock-in mice are established animal models of Fuchs' endothelial corneal dystrophy (reference: Jun et al., Hum Mol Genet. 2012 Jan. 15; 21(2): 384-93). 5”\nas §2"}, "Col8a2 knock-in mice [3]": {"test_system": "Col8a2 knock-in mice", "test": "Corneal endothelial cell density after eye drops in Col8a2 knock-in mice (Example 6, 12 weeks)", "details": "eye drop group (0.02%, 0.1%)", "protocol": "(§3) 5 μL of 0.02% (about 0.5 mM) EW-7197 eye drop, 0.1% (about 2.5 mM) EW-7197 eye drop, or a base agent (DMSO containing phosphate buffer) was administered as an eye drop to both eyes of 4-month-old alpha 2 collagen 8 gene (Col8a2) knock-in mice 4 times a day for 12 weeks. A surfactant was added to the base agent as needed. Those skilled in the art can use an appropriate and suitable surfactant (Kenji Motose (1984). “Tenganzai” [Eye drops] Nanzando; International Pharmaceutical Excipients Council Japan (2016). “Iyakuhin Tenkabutsu Jiten” [Pharmaceutical Excipient Encyclopedia] Yakuji Nippo, Limited). The corneal endothelial cell density was measured using a specular microscope KS3M (Konan Medical, Inc.) at before eye drops, and 3, 6, 9, and 12 weeks after eye drops. Mice were euthanized by intraperitoneally administering an excessive amount (200 mg/kg body weight or greater) of anesthetic injection Somnopentyl (Kyoritsu Seiyaku Corporation) 12 weeks after injection. After confirming cardiac arrest, both eye balls were harvested. The harvested eye balls were incised to prepare a corneal fragment. Immunostaining of fibronectin was performed. The immunostaining method was the following. Image-Pro (Nippon Roper K.K.) was used to analyze the area of fibronectin expression."}, "fibronectin [4]": {"test_system": "fibronectin", "test": "Area of fibronectin expression by immunostaining, Col8a2 knock-in mice (Example 6)", "protocol": "as §3\nas §2, with “C. 1:250 diluent of fibronectin polyclonal antibody (abcam) was used as the primary antibody. Next, the corneal fragment was immersed in a mixture of a secondary antibody solution and DAPI solution (Dojindo Laboratories) and reacted for 1 hour at room temperature away from light. 1:2000 diluent of Alexa Fluor® 488-labeled goat anti-rabbit IgG (Life Technologies) was used as the secondary antibody. 1:1000 diluent of DAPI solution was used.” for “C.”"}}, "data": [{"smiles": "Cc1cccc(-c2[nH]c(CNc3ccccc3F)nc2-c2ccc3ncnn3c2)n1", "note": "[EW-7197, N-((4-([1,2,4]triazolo[1,5-a]pyridin-6-yl)-5-(6-methylpyridin-2-yl)-1H-imidazol-2-yl)methyl)-2-fluoroaniline]", "values": [{"measurement": "decrease in the corneal endothelial cell density compared to the base agent group", "setting": "Col8a2 knock-in mice [1]; 0.02% eye drop", "value": "suppressed significantly"}, {"measurement": "Amount of change in the corneal endothelial cell density (ΔECD)", "setting": "Col8a2 knock-in mice [1]; week 0 (before eye drop)", "value": 0, "unit": "cells/mm^2"}, {"measurement": "Amount of change in the corneal endothelial cell density (ΔECD)", "setting": "Col8a2 knock-in mice [1]; week 4", "value": "−121.4", "unit": "cells/mm^2"}, {"measurement": "Amount of change in the corneal endothelial cell density (ΔECD)", "setting": "Col8a2 knock-in mice [1]; week 8", "value": "−284.5", "unit": "cells/mm^2"}, {"measurement": "area of type I collagen expression compared to the base agent group", "setting": "type I collagen", "value": "decreasing trend"}, {"measurement": "area of fibronectin expression compared to the base agent group", "setting": "fibronectin [2]", "value": "decreasing trend"}, {"measurement": "corneal endothelial density at the center section of the cornea", "setting": "Col8a2 knock-in mice [3]; up to week 6", "value": "tendency for suppressing a decrease"}, {"measurement": "corneal endothelial density at the center section of the cornea vs base agent eye drop group", "setting": "Col8a2 knock-in mice [3]; week 12", "value": "a significant difference in the corneal endothelial density at the center section of the cornea was not observed"}, {"measurement": "fibronectin expression", "setting": "fibronectin [4]; 0.004% (0.1 mM) eye drop", "value": "tendency of suppressing fibronectin expression"}, {"measurement": "fibronectin expression", "setting": "fibronectin [4]; 0.02% eye drop, 12 weeks", "value": "clear suppression of fibronectin expression"}, {"measurement": "fibronectin expression", "setting": "fibronectin [4]; 0.1% eye drop, 12 weeks", "value": "clear suppression of fibronectin expression"}]}]}
